PubChem BioAssay (NCI)
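Briefly, cells in 96-well plates were exposed to five compound concentrations for 48 h, and endpoints were estimated by linear interpolation. GI50: concentration for 50% inhibition of growth. At the TGI there is no net growth.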

Experiments:
Assay in all cases: NCI-60 cell line screen, 48 h
[1] = test system: CAKI-1 renal
[2] = test system: DLD-1 colon
[3] = test system: TK-10 renal
[4] = test system: OVCAR-8 ovarian
[5] = test system: HOP-18 NSCLC
[6] = test system: COLO 205 colon
[7] = test system: SF-295 CNS
[8] = test system: NCI-H522 lung
[9] = test system: DU-145 prostate
[10] = test system: NCI/ADR-RES ovarian

SMILES	TGI [1] [µM]	TGI [2] [µM]	TGI [3] [µM]	TGI [4] [µM]	TGI [5] [µM]	TGI [6] [µM]	TGI [7] [µM]	TGI [8] [µM]	TGI [9] [µM]	TGI [10] [µM]	GI50 [1] [µM]	GI50 [9] [µM]	GI50 [3] [µM]	GI50 [8] [µM]	GI50 [4] [µM]	GI50 [6] [µM]	GI50 [10] [µM]	GI50 [7] [µM]	GI50 [2] [µM]
CN(C)C(=O)Oc1c(-c2ccccc2)c(=O)n2c3ccccc3n3c(=O)n(C)c(=O)c1c23	> 100	> 100	> 100	> 100	> 100	> 100	> 100	–	–	–	–	–	–	–	–	–	–	–	–
CC(=O)N/C(=C\c1ccc(Cc2nc3c([nH]2)C(=O)c2ccccc2C3=O)cc1)c1nc2c([nH]1)C(=O)c1ccccc1C2=O	> 100	> 100	> 100	> 100	–	> 100	> 100	> 100	–	–	–	–	–	–	–	–	–	–	–
N#CCC(=O)N1CCCCCCC1	> 100	> 100	> 100	–	–	28.9	> 100	–	–	–	–	–	–	–	–	–	–	–	–
C=CC1=C(C)C2=NC1=CC1=NC(=C(CC)/C1=C\O)C=C1N=C3C(=C1C)C(=O)[C@H](C(=O)OC)C3=C1NC(=C2)[C@@H](C)[C@@H]1CCC(=O)O	> 100	–	> 100	> 100	–	> 100	> 100	> 100	> 100	> 100	–	–	–	–	–	–	–	–	–
CC(C)=CC(=O)Cc1nc2ccc([N+](=O)[O-])cc2[nH]c1=O	> 100	> 100	> 100	> 100	–	> 100	> 100	> 100	–	–	–	–	–	–	–	–	–	–	–
O=C(CC/C(CC(=O)c1ccc(Br)cc1)=N\O)Nc1ccc(Cl)c(Cl)c1	–	> 100	> 100	> 100	> 100	> 100	> 100	53.5	–	–	–	–	–	–	–	–	–	–	–
C[C@@H]1COCCN1c1cc(C2(O)C[C@H]3CC[C@@H](C2)O3)c2cnn(-c3ccn[nH]3)c2n1 (stereo not given in full)	0.627	–	1.01	1.56	–	2.52	0.308	1.01	2.46	1.1	0.0685	0.0553	0.0515	0.141	0.145	0.253	0.154	0.0329	–
CCC[CH2][Sn]1([CH2]CCC)[O]CC(C)[O]1 (stereo not given)	1.23	3.32	2.56	3.47	–	2.29	2.74	1.07	–	–	0.24	–	1.26	0.306	1.59	1.01	–	1.4	1.47
O=C(O)Cn1cc([N+](=O)[O-])c(=O)c2ccccc21	> 100	–	> 100	> 100	–	33.7	> 100	> 100	> 100	> 100	–	–	–	–	–	–	–	–	–
CC(=O)[CH-]C(C)=O.CC(=O)[CH-]C(C)=O.CC[O-].CC[O-].[Ti+4]	> 100	> 100	> 100	> 100	–	> 100	> 100	> 100	–	–	> 100	–	> 100	> 100	> 100	> 100	–	> 100	> 100
COC(=O)C(C)NC(=O)c1ccccc1I(OS(=O)(=O)C(F)(F)F)c1ccccc1 (stereo not given)	> 62.5	–	57.6	> 100	–	45.9	> 63.6	64.9	> 71.1	42.9	> 42.8	25.6	21	23.9	36.3	23.6	20.1	> 44.7	–
Cc1cccc2c(O)cc(=O)oc12	–	> 100	> 100	> 100	> 100	–	> 100	–	–	–	–	–	–	–	–	–	–	–	–
C[C@@H](Nc1nc(Nc2ccc(F)c(Cl)c2)nc2ccccc12)C1CC1	15.7	–	20.3	20.5	–	3.46	8.92	19.5	20.5	8.52	3.18	7.19	6.96	4.32	3.58	1.71	2.3	1.88	–
COc1c(B(O)O)cc(F)cc1-c1nc2ccc3[nH]ncc3c2c2c1CCCC2	0.134	–	9.43	17.7	–	4.97	10.8	11.7	12.9	13.7	< 0.01	1.7	< 0.01	1.03	1.55	1.61	2.03	1.76	–
CN1C/C(=C\C=C\c2ccccc2)C(=O)/C(=C/C=C/c2ccccc2)C1	> 100	> 100	> 100	> 100	–	> 100	> 100	> 100	–	–	–	–	–	–	–	–	–	–	–
O=c1oc2c(C(F)(F)F)cccc2cc1-c1csc(Nc2ccc(OCCF)cc2)n1	> 34.7	–	81	7.66	–	0.0729	12.7	0.0766	> 50.8	66.5	0.0521	0.0462	0.0838	0.0216	0.0393	0.0268	0.0401	0.0286	–
O=C(c1ccccc1)c1c(C(F)(F)F)n([O-])c2ccc(C(F)(F)F)cc2[n+]1=O	0.348	–	1.35	3.57	–	0.879	1.11	0.971	0.698	0.688	0.193	0.289	0.636	0.306	1.2	0.384	0.239	0.548	–
Cc1cccc(Cc2cnc(NC(=O)CCc3ccc(C)o3)s2)c1	50.8	–	> 100	> 100	–	0.716	12.6	–	> 95.8	> 100	0.235	0.38	1.49	0.183	0.406	0.227	0.228	0.195	–
CC#Cc1nc(Nc2cc(C)[nH]n2)c2ccccc2n1	13.8	–	21.2	37.3	–	10.3	34.5	22	55	> 100	2.32	7.47	3.57	6.24	5.05	3.26	6.63	12.3	–
Cc1c([N+](=O)[O-])oc2ccc3ccccc3c12	> 100	–	> 100	> 100	–	> 100	> 100	41.9	83.7	> 100	–	–	–	–	–	–	–	–	–

SMILES	TGI [1] [µM]	TGI [2] [µM]	TGI [3] [µM]	TGI [4] [µM]	TGI [5] [µM]	TGI [6] [µM]	TGI [7] [µM]	TGI [8] [µM]	TGI [9] [µM]	TGI [10] [µM]	GI50 [1] [µM]	GI50 [9] [µM]	GI50 [3] [µM]	GI50 [8] [µM]	GI50 [4] [µM]	GI50 [6] [µM]	GI50 [10] [µM]	GI50 [7] [µM]	GI50 [2] [µM]
CCc1cccc(C)c1NC(=O)CC1C(=O)Nc2ccccc2S1(=O)=O (stereo not given)	31.2	40.4	59.4	54.1	–	–	82.1	32.5	–	–	–	–	–	–	–	–	–	–	–
O=c1oc2ccccc2c(O)c1C(C/C(CCN1CCCC1)=N\Nc1ccccc1)c1ccccc1 (stereo not given)	> 100	> 100	> 100	> 100	> 100	–	> 100	> 100	–	–	–	–	–	–	–	–	–	–	–
COC(=O)c1nn(C(=N)c2ccc(Cl)cc2)c2c1CCC2	> 100	> 100	> 100	> 100	–	> 100	> 100	> 100	–	–	–	–	–	–	–	–	–	–	–
CC(=C/c1ccccc1)/C=C1/NC(=S)N(/C=C2\C(=O)Oc3ccccc3C2=O)C1=O	> 100	–	> 100	> 100	–	> 100	> 100	> 90.5	> 100	> 100	59.7	–	–	–	–	–	–	–	–
CC(O)c1cc(C(=O)N[C@@H](C)Cn2ccc(-c3ccc(C#N)c(Cl)c3)n2)n[nH]1 (stereo not given in full)	> 100	–	> 100	> 100	–	> 100	> 100	> 100	> 100	> 100	44.9	> 100	> 100	39.4	28.7	54	> 100	23.9	–
C[C@]12CCC(=O)C=C1CC[C@@H]1C2CC[C@]2(C)c3nn(-c4ccccc4)nc3CC12 (stereo not given in full)	–	> 100	> 100	> 100	–	> 100	> 100	–	–	–	–	–	–	–	–	–	–	–	–
Oc1c(CN2CCN(c3ccccc3)CC2)cc(Br)c2cccnc12	> 100	–	> 100	> 100	–	> 100	> 95	36.8	13.8	> 100	–	–	–	–	–	–	–	–	–
CS(=O)(=O)N(c1cc(-c2ccc3ncnc(Nc4cccc(Cl)c4)c3c2)cnc1Cl)S(C)(=O)=O	2.08	–	0.985	> 100	–	2.04	3.17	7.74	14.1	12.4	0.281	0.508	0.145	0.645	1.58	0.421	1.5	0.542	–
CN(C)CC/C(=N\Nc1ccc(Cl)cc1Cl)c1ccccc1	–	23.8	28.3	34.9	28.7	29.2	32.9	–	–	–	–	–	–	–	–	–	–	–	–
Cc1ccc([C@]2(C)CC[C@H](C)/C2=C\Br)c(O)c1	16.6	–	14.1	21.9	–	6.14	11.6	12	17.2	5.52	4.32	4.1	3.35	3.24	5.88	2.49	2.26	3.4	–
C/C=N\N1C(=O)c2ccccc2C1=O	> 100	> 100	> 100	> 100	> 100	–	> 100	–	–	–	–	–	–	–	–	–	–	–	–
CC(=O)c1cc(O)c2ccccc2c1O	30.2	–	33.1	38.6	–	34.4	38.8	35.4	33	67.5	15.5	18.9	17	14.5	20.2	19	24.5	18.5	–
Cc1cc(I)cc(CN(C)CCCN2CCN(C)CC2)c1O	47.3	–	> 100	> 100	–	42	39.6	97.1	> 100	> 100	20.3	75	61.7	46.4	80.8	19.3	77.8	18.5	–
O=C(O)c1cc2ccccc2c2c1C(=O)c1ccccc1-2	> 100	–	> 100	> 100	–	> 100	> 100	> 100	> 100	> 100	–	–	–	–	–	–	–	–	–
O=C(O)C(Oc1nc(=S)[nH]c(=S)[nH]1)(c1ccc(Cl)cc1)c1ccc(Cl)cc1	> 100	–	> 100	> 100	–	> 100	> 100	> 100	> 100	> 100	–	–	–	–	–	–	–	–	–
CN(C)CCCn1c(-c2nonc2N)nc2cnccc21	> 25	–	> 25	> 25	–	> 25	> 25	> 25	> 25	> 25	> 25	> 25	> 9.98	> 25	> 25	> 25	> 25	> 25	–
NNC(=O)C(=O)N/N=C(\CCC(=O)Nc1ccc(Cl)cc1)Cc1nc2ccccc2s1	> 100	–	> 100	> 100	38.7	> 100	> 100	40.8	–	–	–	–	–	–	–	–	–	–	–
O=C1OCC2=C1C(c1ccccc1)c1cc3c(cc1N2CCO)OCCO3 (stereo not given)	> 30.3	–	–	> 50	–	0.978	–	0.165	2.73	1.93	0.293	0.304	1.27	0.0593	0.651	0.24	0.377	0.183	–
CC(C)=CCCC(C)C1=C(O)C(=O)C(C)=CC1=O (stereo not given)	15.1	–	23.5	40.9	–	18.2	> 100	4.48	33.3	> 49.1	–	–	–	–	–	–	–	–	–
Cc1ccc(Sc2cc3c(oc2=O)-c2ccccc2OC3O)cc1 (stereo not given)	78.1	–	84.9	71.3	–	36.5	67.5	38.8	45.2	60.5	32	21.8	33.8	18.1	27.8	15	25.2	30.2	–
